Values after ≈ are worked out from the molar mass of the structure shown.
Experiments:
[1] = physchem; type: physicochemical
Experimental: The solubility assay was based on the addition of an excess of the drug to different solutions with increasing concentrations of two different cyclodextrins, 2-hydroxypropyl-β-cyclodextrin (HPβCD) or 2-hydroxypropyl-ɣ-cyclodextrin (HPγCD). […] Afterwards, the resultant solutions were centrifugated (Eppendorf® Centrifuge 5804R) at 12,000 rpm for 30 min and 25 °C. […] Each measurement was performed in triplicate.

[2] = Particle size of cyclodextrin/drug aggregates by TEM; type: physicochemical
Experimental: Samples were placed on copper grids and stained with 2% (w/v) phosphotungstic acid. Samples were dried and evaluated by TEM observation using an accelerating voltage of 200 kV.
Particle size was measured using Image-Pro Plus Image Analysis Software Version 6.0.0.260 (Media Cybernetics, Inc., Rockville, MD, USA).

- solubility at 7 days [1]: 35.3 ± 14 µg/mL (≈ 53 µM)
- average particle size (TEM) ([2]; saturated solution of natamycin in 40% (w/v) HPβCD): 80.25 ± 35.81 nm
- average particle size (TEM) ([2]; saturated solution of natamycin in 40% (w/v) HPβCD with 1% (w/v) voriconazole): 148.96 ± 32.89 nm
Structure (SMILES): C[C@@H]1C/C=C/C=C/C=C/C=C/[C@H](O[C@@H]2O[C@H](C)[C@@H](O)[C@H](N)[C@@H]2O)C[C@@H]2O[C@](O)(C[C@@H](O)C[C@H]3O[C@@H]3/C=C/C(=O)O1)C[C@H](O)[C@H]2C(=O)O [Natamycin]

From paper PMC9866460, “Antifungal Combination Eye Drops for Fungal Keratitis Treatment” (Pharmaceutics, 2022)
